Results on five compounds are retold here after ChEMBL document CHEMBL1201862, “PubChem BioAssay data set” (2004).

Some test systems named below: SF-268; SF-295; RXF 393; SK-MEL-5; HCT-15; Malme-3M; SN12C; SW-620; UO-31; ACHN; UACC-257; NCI-H522; OVCAR-3; U-251; SK-MEL-2; K562; CCRF-CEM; CAKI-1; 786-0.
Common to all, as to assay: growth of human tumour cells (NCI), 48 h

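Where inhibition never reached the appropriate level, the endpoint shown equals the highest concentration tested. Otherwise, values were interpolated linearly from a five-concentration, 48-hour dose response in 96-well plates. The concentration for 50% growth inhibition is given as GI50.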 The source made the active and inactive calls. No stated cut-off is given here; in the data, active = GI50 up to about 1.1 µM and inactive = higher. Bounds are passed on as bounds.

For the compound `CCCCCC1CC(C(C)=O)CN1c1ccc(F)cc1` (stereo unspecified), the GI50 with SF-268 is 32 µM (inactive); in the experiment with SF-295, 21.2 µM (inactive); in the experiment on RXF 393 it was 41 µM (inactive); in the experiment on SK-MEL-5, 19.8 µM (inactive); with HCT-15, 52.8 µM; in the experiment with Malme-3M, 54.7 µM (inactive). Also, the GI50 is 48.5 µM (inactive) in the experiment on SN12C; 29.7 µM (inactive) in the experiment on SW-620; 37.4 µM (inactive) with UO-31; 26.9 µM (inactive) in the experiment on ACHN; 30.5 µM (inactive) in the experiment with UACC-257; 21.2 µM (inactive) in the experiment with NCI-H522. The GI50 is 28.1 µM (inactive) in the experiment with OVCAR-3, 41.5 µM (inactive) in the experiment with U-251 and 38.9 µM (inactive) with SK-MEL-2.

Turning to `COc1ccc(/C=N/NC(=O)NCCCN(C)C)cc1`, the GI50 in the experiment with SF-268 was > 100 µM (inactive); in the experiment on K562 it was > 100 µM (inactive); in the experiment with SF-295 it was > 100 µM (inactive); in the experiment with RXF 393 it was > 100 µM (inactive); with SK-MEL-5 it was > 100 µM (inactive); with HCT-15 it was over 100 µM. Besides, the GI50 in the experiment with Malme-3M, in the experiment with SN12C, in the experiment on SW-620, with UO-31, in the experiment on ACHN and in the experiment on UACC-257 was > 100 µM (inactive) throughout. Further, the GI50 in the experiment with CCRF-CEM, in the experiment with NCI-H522, with OVCAR-3, with U-251 and with SK-MEL-2 was > 100 µM (inactive) each time.

Turning to `[N-]=[N+]=CC(=O)c1ccccc1C#CCCc1ccccc1`, the GI50 in the experiment on K562 is 27.5 µM (inactive); in the experiment with SF-295, 40.4 µM (inactive); in the experiment with RXF 393, 30 µM (inactive); in the experiment on SK-MEL-5, 15.7 µM (inactive); in the experiment on HCT-15, 26.1 µM; in the experiment with Malme-3M it was 27.4 µM (inactive). Besides, the GI50 in the experiment with SN12C was 35.5 µM (inactive); in the experiment with SW-620, 32.7 µM (inactive); in the experiment on UO-31 it was 22.7 µM (inactive); in the experiment with ACHN, 22.6 µM (inactive); in the experiment on UACC-257, 23.9 µM (inactive); with CCRF-CEM, 10.9 µM (inactive). The GI50 in the experiment on NCI-H522 is 1.05 µM (active); in the experiment on OVCAR-3, 20.2 µM (inactive); in the experiment on U-251, 10.2 µM (inactive); in the experiment on SK-MEL-2 it was 27.2 µM (inactive).

Consider `CCOC(=O)[C@H]1Nc2c(cccc2[N+](=O)[O-])C2c3ccccc3CC21` (stereo partly specified), for which the GI50 in the experiment with SF-268 is > 100 µM (inactive); with K562, > 100 µM (inactive); in the experiment on SF-295, 35.6 µM (inactive); in the experiment on RXF 393, 3.15 µM (inactive); in the experiment with SK-MEL-5 it was > 100 µM (inactive); in the experiment on HCT-15 it was over 100 µM. Further, the GI50 in the experiment with Malme-3M is > 100 µM (inactive); in the experiment with SN12C, > 100 µM (inactive); with SW-620 it was > 100 µM (inactive); with CAKI-1, > 100 µM (inactive); in the experiment with UO-31, > 100 µM (inactive); in the experiment with ACHN it was 28.4 µM (inactive). Further, the GI50 with UACC-257 was 27.7 µM (inactive); in the experiment with NCI-H522, > 100 µM (inactive); in the experiment with OVCAR-3, 40.8 µM (inactive); with U-251, > 100 µM (inactive); in the experiment on SK-MEL-2, > 100 µM (inactive).

Consider `O=C(Nc1cccc(C(F)(F)F)c1)C(=O)C(C(=O)c1ccc(Cl)c(Cl)c1)C1OC(=O)c2ccccc21` (stereo unspecified), for which the GI50 in the experiment on SF-268 was 37.9 µM (inactive); with K562, 44 µM (inactive); with RXF 393, 14.7 µM (inactive); in the experiment with HCT-15 it was 35 µM; in the experiment on Malme-3M it was 15.6 µM (inactive); in the experiment with SN12C it was 36.6 µM (inactive). For the same compound, the GI50 in the experiment with SW-620 is 38.1 µM (inactive); in the experiment with 786-0, 37.7 µM (inactive); in the experiment with CAKI-1 it was 88.1 µM (inactive); in the experiment with UO-31 it was 55.1 µM (inactive); in the experiment on ACHN, 53.2 µM (inactive); in the experiment with UACC-257, 51.8 µM (inactive). Moreover, the GI50 was 28.4 µM (inactive) with CCRF-CEM, 28.8 µM (inactive) with NCI-H522, 32.1 µM (inactive) in the experiment on OVCAR-3 and 23.1 µM (inactive) in the experiment with U-251.
